Patent publication US20120010075A1 (priority 2009, published 2012)
Where two headings read alike, the source gives them in different places.

What was measured:
[1] = system: Leptosphaeria nodorum (LEPTNO); experiment: In vitro fungitoxicity of hydrazones with and without copper towards Leptosphaeria nodorum (Example 26); format: cell-based; settings: compound 0.05 μg/mL, 72 h at 25° C.; for inhibition of growth at 0.05 µg/mL: Parastagonospora nodorum, 72 h, read-out: LEPTNO % Inhn. Minus Copper Observed; for LEPTNO % Inhn. Plus Copper Observed: copper-plus medium (CuCl2.2H2O)
[2] = system: Phytophthora infestans; format: in vivo, Phytophthora infestans on tomato; settings: hydrazone 50 ppm + 50 μM CuCl2.2H2O, applied 24 h before inoculation, assessed 7 days after inoculation, tomato
[3] = system: Phytophthora capsici; experiment: In vitro fungitoxicity of hydrazones with and without copper towards Phytophthora capsici (Example 28, Table 3); format: cell-based; settings: for % Inhn Plus copper Observed: copper-plus AS medium (CuCl2, 50 μM); for inhibition of growth at 0.05 µg/mL / inhibition of growth at 0.039 µg/mL: Phytophthora capsici, read-out: % Inhn Minus copper Observed
[4] = system: Phytophthora infestans; format: in vivo, Phytophthora infestans on tomato (Outdoor Girl); settings: no hydrazone
[5] = 0.050 μg/mL, copper-minus AS medium, 48 h
[6] = 0.039 μg/mL, copper-minus AS medium, 48 h

| Compound | inhibition of growth at 0.05 µg/mL ([1]; copper-minus medium) | LEPTNO % Inhn. Plus Copper Observed [1] | TLB % Control [2] | % Inhn Plus copper Observed ([3]; 0.050 μg/mL, 48 h) | inhibition of growth at 0.05 µg/mL [3, 5] | melting point | LEPTNO % Inhn. Minus Copper Observed ([1]; copper-minus medium) | % Inhn Plus copper Predicted ([3]; 0.039 μg/mL, Colby formula, CuCl2, 50 μM) | % Inhn Minus copper Observed [3, 6] | % Inhn Plus copper Observed ([3]; 0.039 μg/mL, 48 h) | inhibition of growth at 0.039 µg/mL [3, 6] | % Control of Tomato Late Blight ([4]; CuSO4 10 μM alone) | % Control of Tomato Late Blight ([4]; CuSO4 50 μM alone) | % Control of Tomato Late Blight ([4]; CuSO4 200 μM alone) | % Control of Tomato Late Blight ([4]; CuSO4 400 μM alone) | % Control of Tomato Late Blight ([4]; CuSO4 800 μM alone) |
| --- | --- | --- | --- | --- | --- | --- | --- | --- | --- | --- | --- | --- | --- | --- | --- | --- |
| O=C(N/N=C/c1cc(Cl)cc(Cl)c1O)c1cc(Cl)ccc1Br [Example 219] | 34.5% | 97.9% | 68.4% | 90.6% | 15.3% | 228 to 231 °C | – | – | – | – | – | – | – | – | – | – |
| O=C(N/N=C/c1cc(Br)cc(Br)c1O)c1cc(I)ccc1Br [Example 223] | 26.9% | 97.2% | 54.0% | 51.3% | 2.5% | 215 to 216 °C | – | – | – | – | – | – | – | – | – | – |
| Cc1ccc(C(=O)N/N=C/c2cc(Cl)cc(Cl)c2O)c(Br)c1 [Example 228] | 2.6% | 97.0% | 68.4% | 86.9% | 10% | 240 to 242 °C | – | – | – | – | – | – | – | – | – | – |
| Cc1ccc(C(=O)N/N=C/c2ccccc2O)c(Br)c1 [Example 227] | 5% | 95.0% | 52.7% | 93.4% | 1.7% | 86 to 122 °C | – | – | – | – | – | – | – | – | – | – |
| O=C(N/N=C/c1ccccc1O)c1cc(I)ccc1Br [Example 221] | 0% | 92.4% | 66.0% | 92.2% | 12% | 202 to 205 °C | – | – | – | – | – | – | – | – | – | – |
| O=C(N/N=C/c1cc(Cl)cc(Cl)c1O)c1cc(I)ccc1Br [Example 222] | 0% | 94.5% | 67.3% | 76.8% | 11.3% | 201 to 219 °C | – | – | – | – | – | – | – | – | – | – |
| O=C(N/N=C/c1cc(Br)cc(Br)c1O)c1cc(I)ccc1Cl [Example 226] | 0% | 94.5% | 71.0% | 62.1% | 2.3% | 205 to 212 °C | – | – | – | – | – | – | – | – | – | – |
| Cc1ccc(C(=O)N/N=C/c2cc(Br)cc(Br)c2O)c(Br)c1 [Example 229] | 6% | 98.0% | 70.9% | 89.1% | 1.6% | 258 to 261 °C | – | – | – | – | – | – | – | – | – | – |
| O=C(N/N=C/c1cccc(F)c1O)c1ccccc1 [Example 15] | – | 96.6% | 58.5% | – | – | 197 to 198 °C | 4.4% | 81.2% | 80.4% | 91.8% | – | – | – | – | – | – |
| Cc1cc(C)cc(C(=O)N/N=C/c2cc(Cl)cc(Cl)c2O)c1 [Example 102] | 0% | 93.4% | 74.0% | – | – | 207 to 209 °C | – | – | – | 93.6% | 15.7% | – | – | – | – | – |
| C/C(=N\NC(=O)Cc1ccc(C(F)(F)F)cc1)c1cc(Cl)cc(Cl)c1O [Example 129] | 5.5% | 97.8% | 49.0% | – | – | 207 to 212 °C | – | – | – | 96.3% | 10.6% | – | – | – | – | – |
| O=C(N/N=C/c1cc(Cl)cc(Cl)c1O)c1ccc2c(c1)OCO2 [Example 6] | 3.9% | 96.4% | 88.1% | – | – | – | – | – | – | 95.8% | 28.8% | – | – | – | – | – |
| O=C(N/N=C/c1cc(Cl)cc(Cl)c1O)c1cc(I)ccc1Cl [Example 225] | 0% | 96.6% | 78.2% | 82.8% | 11.4% | 198 to 201 °C | – | – | – | – | – | – | – | – | – | – |
| COc1ccc(O)c(/C=N/NC(=O)c2ccc(Cl)cc2)c1 [Example 207] | 0% | 95.3% | 52.7% | – | – | – | – | – | – | 88.9% | 0% | – | – | – | – | – |
| O=C(N/N=C/c1ccccc1O)c1cc(I)ccc1Cl [Example 224] | 0% | 91.0% | 67.3% | 93.3% | 6.2% | 222 to 226 °C | – | – | – | – | – | – | – | – | – | – |
| O.O.O.O.O.O=S(=O)([O-])[O-].[Cu+2] [CuSO4, CuSO4.5H2O, reference compound] | – | – | – | – | – | – | – | – | – | – | – | 1.7% | 4.8% | 49.7% | 76.0% | 82.9% |
| COc1cccc(C(=O)N/N=C/c2cc(Cl)cc(Cl)c2O)c1C [Example 99] | 8.9% | 94.5% | 50.3% | – | – | 192 to 194 °C | – | – | – | 94.0% | 23.6% | – | – | – | – | – |
| C=CCc1cccc(/C=N/NC(=O)c2ccccc2)c1O [Example 143] | 2.1% | 98.2% | 64.4% | – | – | – | – | – | – | 94.5% | 6% | – | – | – | – | – |
| O=C(N/N=C/c1ccccc1O)c1cc(Cl)ccc1Br [Example 218] | 0% | 92.5% | 70.9% | 93.3% | 10.7% | 222 to 225 °C | – | – | – | – | – | – | – | – | – | – |
| O=C(N/N=C/c1cc(Br)cc(Br)c1O)c1cc(Cl)ccc1Br [Example 220] | 0% | 95.3% | 89.1% | 85.5% | 13.4% | 215 to 218 °C | – | – | – | – | – | – | – | – | – | – |
| O=C(N/N=C/c1cc(Cl)cc(Cl)c1O)c1ccccc1C(F)(F)F [Example 56] | 2.1% | 96.3% | 81.3% | – | – | 106 to 111 °C | – | – | – | 94.1% | 57.5% | – | – | – | – | – |
| Nc1ccccc1C(=O)N/N=C/c1cc(Cl)cc(Cl)c1O [Example 91] | 0% | 79.3% | 18.0% | – | – | – | – | – | – | 93.2% | 52.1% | – | – | – | – | – |
